Assay results taken from patent US20200129450A1, “COMPOSITION COMPRISING OSMUNDACETONE OR PHARMACEUTICALLY ACCEPTABLE SALT THEREOF FOR PREVENTING OR TREATING BONE DISEASE” (KORPHARM CO., LTD., priority 2016, published 2020).

What was measured:
[1] = test system: RUNX2 in MC3T3-E1 cells; experiment: Western blot, RUNX2 expression; assay type: cell-based, mouse; conditions: 50 μM
Experimental: In order to analyze the expression of osteoblast differentiation markers during a differentiation procedure, 3×10^5 MC3T3-E1 cells were dispensed in a 100 mm culture plate together with 10 mL of complete α-MEM containing ascorbic acid (50 μg/mL) and 10 mM R-glycerophosphate per well. Here, 50 μM osmundacetone was added or not added, and the cells were incubated at 37 […] in a 5% CO2 incubator for 21 days while the medium was exchanged every 3-4 days.
The negative control cells were cultured without differentiation factors, and the osteoblasts and a culture thereof were dispensed, and then collected on day 7, 14, or 21.
The cells were lysed using RIPA buffer, and then the expression of runt-related transcription factor 2 (RUNX2) was analyzed. Also for analysis of OCN secretion, the culture was collected, and normalized by cellular DNA.
Proteins were analyzed using SDS-PAGE on 12.5% […] gels, and transferred on polyvinylidene difluoride (PVDF) membrane through electrophoresis.
The membrane was blocked using non-fat milk, and examined using anti-RUNX2 (D1H7) rabbit monoclonal antibody (#8486, Cell Signaling Technology, MA, USA) or anti-OCN (FL-95) antibody (# sc-30045, Santa Cruz Biotechnology, TX, USA). Anti-actin antibody (# M177-3, MEDICAL & BIOLOGICAL LABORATORIES CO., LTD., Nagoya, Aichi, Japan) was used as an internal reference.
Protein bands on the blot were visualized using an enhanced chemiluminescent detection kit (# EBP-1073, PicoEPD Western Reagent, ELPIS-BIOTECH, Daejeon, Korea).

[2] = test system: ADMSC human Adipose-derived mesenchymal stem cells; experiment: MTT assay cytotoxicity; assay type: cell-based; conditions: 24 hours, read-out: IC50 according to MTT assay
Experimental: Human adipose-derived mesenchymal stem cells, ADMSCs (CEFO Bio, Seoul, Korea), were incubated using CB-ADMSC-GM (CEFO Bio, Seoul, Korea) in the conditions of 37° C. and 5% CO2.
(§1) The compound isolated from Osmunda japonica, prepared in section 1 of <Example 1>, was investigated for cytotoxicity using MTT assay.
(§2) MTT assay was as follows.
(§3) Cells were incubated at 1×10^3 cells/well in a 96-well plate containing DMEM with 10% fetal bovine serum (FBS) at 5% CO2 and 37° C., and then osmundacetone was added to the cell medium, followed by incubation for 24 hours. Thereafter, 100 μL of MTT (0.5 mg/ml PBS) was administered, followed by incubation for 2 hours. Thereafter, the medium was removed from each well, and 100 μL of DMSO was added. After incubation for 10 minutes, the absorbance was measured using a microplate reader (SPCTRA MAX 340PC, Molecular Devices, USA) at 570 nm. The absorbance is an indicator showing the number of living cells, and calculated by the following equation. The reproducibility thereof was validated by three experiments.
(§4) Cell proliferation (%)=OD550(sample)/OD550(control)

[3] = test system: B16F10 mouse melanoma; experiment: MTT assay cytotoxicity; assay type: cell-based; conditions: B16F10, 24 hours
Experimental: (§5) HaCaT human epidermal keratinocytes, # ATCC PCS-200-011) were incubated using Dulbecco's modified Eagle's medium (DMEM, # DMEM-HPA, Capricorn Scientific, Ebsdorfergrund, Germany) in the conditions of 37° C. and 5% CO2. NIH3T3 mouse embryo fibroblasts (# KCLB 21658), RAW264.7 murine macrophages (preosteoclast cell line, # KCLB 40071), HCT116 human colon cancer cells (# KCLB 10247), PC3 human prostate adenocarcinoma cells (# KCLB 21435), HT1080 human fibrosarcoma cells (# KCLB 1121), and B16F10 mouse malignant melanoma cells (# KCLB 80008) were purchased from the Korean Cell Line Bank, and incubated using DMEM in the conditions of 37° C. and 5% C02.
as §1, §2
as §3, with “Thereafter, the medium was removed from each well, and 100 μL of DMSO was added.” left out, “The reproducibility thereof was validated by three experiments.” left out

[4] = test system: NIH3T3 mouse embryo fibroblasts; experiment: MTT assay cytotoxicity; assay type: cell-based; conditions: NIH3T3, 24 hours, read-out: IC50 according to MTT assay
Experimental: as §5, §1, §2
as §3, with “Thereafter, the medium was removed from each well, and 100 μL of DMSO was added.” left out, “The reproducibility thereof was validated by three experiments.” left out

[5] = test system: A549 human lung carcinoma; experiment: MTT assay cytotoxicity; assay type: cell-based; conditions: cancer cell
Experimental: (§6) AGS human stomach adenocarcinoma cells (# KCLB 21739), A549 human lung carcinoma cells (# KCLB 10185), Caki-1 human kidney carcinoma cells (# KCLB 30046), T24 human bladder carcinoma cells (# KCLB 30004), TC-1 P3 HPV-16E7-expressing mouse pulmonary epithelial cells, MHC class I (provided by Tae-Woo Kim, a professor of Korea University) were incubated using RPMI (Rosewell Park Memorial Institute) 1640 (# RPMI-A, Capricorn Scientific, Ebsdorfergrund, Germany) in the conditions of 37° C. and 5% CO2.
as §1, §2
as §3, with “experiments. […]” for “experiments.”

[6] = test system: AGS human stomach adenocarcinoma; experiment: MTT assay cytotoxicity; assay type: cell-based; conditions: 24 hours
Experimental: as §6, §1, §2
as §3, with “experiments. […]” for “experiments.”

[7] = MTT assay cytotoxicity, cancer cell lines (summary); assay type: cell-based; conditions: human cancer cell lines (AGS, PC3) compared with human normal cell lines (HaCaT, ADMSC); read-out: cancer selectivity index in cell cytotoxicity
Experimental: as §2
as §3, with “equation.” for “equation. The reproducibility thereof was validated by three experiments.”
as §4

[8] = test system: cancer cell lines; experiment: as above; assay type: cell-based; conditions: summary range
Experimental: as §2
as §3, with “equation.” for “equation. The reproducibility thereof was validated by three experiments.”
as §4

[9] = test system: normal cell lines; experiment: MTT assay cytotoxicity, normal cell lines (summary); assay type: cell-based
Experimental: as §1, §2, §3, §4

[10] = US toxic substance regulatory agencies, Not Listed; cited from earlier work

Question: For `CC(=O)/C=C/c1ccc(O)c(O)c1` [Osmundacetone, (3E)-4-(3,4-dihydroxyphenyl)-3-buten-2-one], which “RUNX2 expression level, increase compared with non-treated positive control group” value ([1]; day 7) is on record?
Answer: The value was 1.1 times.

Question: And the “RUNX2 expression level, increase compared with non-treated positive control group” value ([1]; day 14)?
Answer: The value was 1.1 times.

Question: And the “RUNX2 expression level, increase compared with non-treated positive control group” value ([1]; day 21)?
Answer: The value was 2.1 times.

Question: And the IC50 [2]?
Answer: Its IC50 is 2760 µM.

Question: And the “LD50 (MTT assay)” value [3]?
Answer: Its value is 75.8 ± 9.2 µM.

Question: And the IC50 [4]?
Answer: Its IC50 is > 5000 µM.

Question: And the “LD50 (μM) Based on MIT Assay” value [5]?
Answer: The value was >5,000 μM.

Question: What about the “LD50 (MTT assay)” value [6] of the same compound?
Answer: The value was 59.9 ± 6.1 µM.

Question: What about the selectivity ratio at 24 h [7] of the same compound?
Answer: Its selectivity ratio at 24 h is 45 to 60.

Question: And the “LD50 for several cancer cell lines” value [8]?
Answer: Its value is 50 to 70 µM.

Question: And the “cell cytotoxicity on normal cell lines” value ([9]; judged against IC50 of less than 100 μM as active)?
Answer: Its value is “did not show cell cytotoxicity”.

Question: What about the “LD50 for normal cell lines” value ([9]; summary range) of the same compound?
Answer: Its value is 2,500-5,000 μM.

Question: What about the “tests of human toxicity, irritation, carcinogenicity, environmental toxicity” value [10] of the same compound?
Answer: The value was “harmless and safe”.
